US8420100B2, “Tumor suppressor activating polypeptides and uses thereof” (Department of Biotechnology, priority 2006, dated 2013)

Tests used:
[1] = target: T1, p53 (serine-15 phosphorylation) (Homo sapiens, UniProt P04637); experiment: Western blotting for total p53 and phospho serine-15 p53 in peptide-treated HEK 293 cells; assay type: cell-based; details: HEK 293, TAT-PTD alone 50-100 μM
T1 construct: HEK 293 (p53^+/+) cells; endogenous in cells; host or cells: HEK 293
Method: P44 peptide controls the activity of cell cycle regulatory proteins: The minimal dose of P44 peptide that was functionally effective in activating p53 was evaluated by incubating HEK 293 cells with varying concentrations of P44 peptide (1-100 μM) (FIG. 3A) and after 12 h of incubation, protein lysates were prepared and processed for immunoblotting with total p53 (DO-1) and p53 ser-15 phospho-specific antibodies. […] However, there was a 4.5-fold increase in the expression of phosphorylated p53 (pSerine-15 p53) in P44 peptide-treated cells (FIG. 3A, lanes 2-6). To exclude the possibility that p53 activation is an effect of the protein transduction domain of HIV-1 TAT protein, similar set of experiment was performed using TAT-PTD peptide alone (consisting of only the 11-mer TAT-sequence). […] This observation reconfirmed that the RS domain (288-350 aa) of SMAR1 could exclusively activate p53 by mediating its phosphorylation specifically at serine-15 residue. Serine-15 phosphorylation of p53 is associated with its increased transcription efficiency, decreased affinity for MDM2, and its increased nuclear retention. One of the target genes activated by p53 is p21, an inhibitor of a subset of the cyclin-dependent kinases including cdc-2 (Sherr, C. J., and Roberts, J. M. (1999) Genes Dev. 13, 1501-1512). To evaluate the significance of peptide-mediated p53 activation, P44 peptide-treated lysates were further checked for tyrosine 15 phosphorylation of cdc2. […] HEK 293 cells were treated with SM peptide and checked for p53 as well as pcdc-2 levels.
Serine 347 residue of SMAR1: critical for mediating the effects of full-length SMAR1: Once it was established that the serine motif (SSSSYS) plays a pivotal role in SMAR1-mediated p53 activation, it got necessary to identify the serine residue within this motif that might be necessary in mediating these effects. To identify the critical serine residue within P44 peptide, various point-mutant peptides were custom synthesized, that varied with respect to the position of serine residue that was mutated (Table 1). To evaluate the functionality of mutant chimeric TAT-SMAR1 peptides [PS347A, PS348A, PS349A, PS350A and RS mutant (SM)] in comparison to the TAT-SMAR1 WT peptide (P44), HEK 293 cells were treated with 10 μM concentration of either of the peptides and protein lysates were prepared after 12 h incubation period. The lysates were then processed for immunoblotting with pSer-15 p53 and pcdc-2 antibodies. […] However, this was not the case with other mutated peptides. When the alanine was replaced back to serine at the 347 residue (FIG. 4A, lanes 3-5), the functionality of the peptide was restored as observed with increase in pcdc-2 levels. […] However, in case of SM (where serine residues from 347-350 were replaced by alanines) treated cells (FIG. 4A, lane 7), there was no difference in the pSer-15 p53 as well as pcdc-2 levels compared to either untreated or PS347A treated cells (FIG. 4A, lanes 1 and 2, respectively).
FIG. 3. P44 peptide activates p53-mediated cell cycle pathway. A, HEK 293 cells were seeded at a density of 5×10^5 and after 24 h, was incubated with increasing concentrations of the TAT-SMAR1 WT (P44) peptide. Protein lysates were prepared and then immunoblotted with antibodies to total p53, phospho serine-15. B, The same set of experiment was repeated with TAT PTD peptide representing the PTD carrier sequence alone and immunoblotted with phospho serine-15, in comparison of P44 treated cells. C, The status of phospho cdc-2 was further analyzed in P44 peptide treated cells. Total […] was used as an internal control. D, The same set of experiments were again repeated using TAT-SMAR1 RS mutant (SM) peptide and whole cell lysates were probed for phospho p53 serine-15 and pcdc-2 antibodies. […] was used as a loading control.
FIG. 4. Serine 347 residue of SMAR1 mediates p53 activation and stabilization. […]

[2] = system: B16F1 mouse melanoma cells; experiment: B16F1 melanoma tumor regression in nude mice; assay type: in vivo; details: nude mice, 200 μg/mouse thrice a week, 4 weeks
Method: P44 peptide: A potent tumor regressor: To test whether the differences in SMAR1 derived peptide-induced activation of p53 translated to differences in drug sensitivity in vivo, B16F1 mouse melanoma cells were subcutaneously grafted into athymic nude mice, and tumor growth together with therapeutic sensitivity was monitored. Once the tumor nodule was established into the mouse, P44 peptide was injected in the tumor localized areas at a physiological dose of 200 μg/mouse thrice a week. The treatment was continued for 4 weeks. In a parallel experiment, either TAT PTD or TAT-SMAR1 RS mutant peptide, SM (FIGS. 6A and B, respectively) was injected in tumor bearing mice to be used as control.
FIG. 6D-F corresponds to the magnified tumor images of FIG. 6A-C, respectively. […] Thus, P44 peptide mimics the function of full-length SMAR1 in drastically reducing the tumor growth.
FIG. 6. Tumor regression by TAT-SMAR1 WT peptide. A, Nude mice were allowed to develop tumors by subcutaneously injecting B 16F1 mouse melanoma cells. Mice with size-matched tumors were then randomized into three treatment groups (five animals per group); TAT PTD alone (panel A), TAT-SMART RS mutant (SM) (panel B) and TAT-SMAR1 WT (P44) (panel C). Panels D, E and F correspond to the magnified images of panels A, B and C, respectively. Mice were treated with either of the peptides at a dose of 200 μg/mice/thrice a week for consecutive 4 weeks. The tumors were then weighed and plotted for each mouse in all the treatment groups (panel G).
Animal model for tumorgenesis: B16F1 mouse melanoma cells in the exponential growth phase were trypsinized (Invitrogen) and washed twice with PBS. Cell number and viability was assessed and cell cultures with viability >90% were used. Tumors were then established in nude mice by subcutaneous injection of 2×10^6 B16F1 cells. Five mice were used in each set of experiments. The mice were maintained under pathogen-free conditions. When the subcutaneous tumor was clearly visible, the TAT-SMAR1 WT (P44) peptide treatment was started. The P44 peptide was subcutaneously injected proximal to the tumor sites at a dose of 200 μg/mouse thrice a week. The treatment was administered for 4 weeks. For control treatment, TAT PTD alone and TAT SMAR1 RS mutant peptide (SM) were injected in the same manner as the P44 peptide.

[3] = system: tumor vasculature of B16F1-induced tumors; experiment: Hematoxylin and eosin histopathology of B16F1-induced tumors; assay type: in vivo, mouse; details: tumors excised from treated mice
Text: (§1) Histopathological changes in the subcutaneous tumors: To analyze the tumor vasculature of TAT PTD, SM treated and P44 treated mice, the tumor sections were stained with HE. […] In SM treated tumors, due to compressed vessels, the shape of RBCs were also distorted (FIG. 7A, lower right panel, arrow marked). […] The presence of hypoxic cells is a hallmark of cancer (Brown, J. M., and Wilson, W. R. (2004) Nat. Rev. Cancer 4, 437-447; Minchinton, A. I., and Tannock, I. F. (2006) Nat. Rev. Cancer 6, 583-592). Cellular responses to hypoxia are triggered by the hypoxia inducible factor-1 alpha (HIF-1α) that is known to restore tissue homeostasis in hypoxic conditions (Semenza, G. L. (2000) Genes Dev. 14, 1983-1991). To determine the status of HIF-1α expression, immunohistochemical analysis was performed on tumor sections obtained from SM and P44 treated mice by using antibody against HIF-1 α. […] All these observations implicate the significance of P44 peptide in restoring tissue architecture in tumor cells and thus potentiates its role as a tumor regressor.
(§2) FIG. 7. Histopathological changes in B16F1-induced tumors. A, Hematoxylin and eosin staining of tumor sections excised from mice treated with either P44 (upper panel) or SM (lower panel) peptide. […] The images have been recorded at 20× and 40×. B, Immunohistochemistry of paraffin embedded tumor sections from P44 treated as well as, SM treated mice. After antigen unmasking, sections were stained with HIF-1α antibody (middle panel) and detected using Cy-3 conjugated mouse immunoglobulin. Sections were counterstained with DAP1 for nuclear localization (left panel). Right panel corresponds to the merged image.

HIF-1α = experiment: Immunohistochemical staining of tumor sections for HIF-1α; assay type: in vivo, mouse; details: tumors excised from treated mice
Text: as §1, §2
Immunohistochemical staining of tumor sections: Tumor sections in paraffin-embedded blocks were transferred to poly-L-lysine coated glass slides and air-dried overnight at 37° C. They were dewaxed in xylene (three changes) and […] in graded series of decreasing ethanol concentrations. […] Thereafter, detected using cy-3 fluorescence labeled secondary antibody. […]

T1 sequence (P04637 whole entry): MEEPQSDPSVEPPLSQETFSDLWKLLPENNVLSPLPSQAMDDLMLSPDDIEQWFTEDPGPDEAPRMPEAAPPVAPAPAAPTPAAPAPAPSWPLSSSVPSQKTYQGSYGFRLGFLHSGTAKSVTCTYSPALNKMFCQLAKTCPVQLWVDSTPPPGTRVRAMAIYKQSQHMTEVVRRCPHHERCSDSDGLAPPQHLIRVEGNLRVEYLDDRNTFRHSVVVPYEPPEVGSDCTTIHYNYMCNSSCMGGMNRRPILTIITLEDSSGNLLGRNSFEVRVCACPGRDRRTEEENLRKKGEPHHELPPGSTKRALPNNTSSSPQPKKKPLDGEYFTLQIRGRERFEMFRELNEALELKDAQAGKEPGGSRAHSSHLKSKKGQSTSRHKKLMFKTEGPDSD

Sequence: YGRKKRRQRRR [TAT PTD, reference compound]
- phosphorylation of serine-15 residue of p53 [1]: no phosphorylation
- tumor weight after excision [2]: 1.5 to 3 g
- tumor vascular architecture (HE staining) [3]: poorly organized vascular architecture and compressed blood vessels
- HIF-1α expression in tumor sections (HIF-1α): increased expression of HIF-1α
